The record followed here is patent publication US20110082329A1, “Modification of Sperm Motility and Its Storage Shelf Time” (priority 2008, published 2011).

The structures appear in SMILES notation.

Assay [1] has as its system sea urchins (Lytechinus pictus) sperms. The assay is described as follows: Sea urchin sperm motility by video microscopy / CASA. The assay is classed as cell-based.
In assay [2] the test system is human sperm from ejaculates of healthy donors. Description: Human sperm motility by video microscopy / CASA. It counts as cell-based. The following applies: control = 100%. As for the experimental part:
(§1) Animals were washed by sequential immersion into 100 ml cold (approximately 5° C.) sperm storage buffer (SSB) pH 6.0. Used SSB composition: 50 mmol/L KCl, 5.0 mmol/L N-tris(hydroxymethyl)methyl-3-aminopropanesulphonic acid (TAPS), 425 mmol/L NaCl, 27 mmol/L MgCl2, 29 mmol/L MgSO4, 10 mmol/L CaCl2 and 2.4 mmol/L NaHCO3. Shedding of gametes was induced by intracoelomic injection of 2.0 ml cold 0.5 mol/L KCl through several sites on the peristomial membrane of the oral side. Sperm were collected by inverting male sea urchins over beakers containing approximately 100 ml cold MES sperm storage buffer (MSSB) pH 6.0. Used MSSB composition: 50 mmol/L KCl, 5.0 mM 2-[N-morpholino]ethanesulphonic acid (MES), 5.0 mmol/L TAPS, 425 mmol/L NaCl, 27 mmol/L MgCl2, 29 mmol/L MgSO4, 10 mmol/L CaCl2 and 2.4 mmol/L NaHCO3. A pool of sperm from several animals was made to minimize individual variations. Sperms were incubated in room temperature for 20 min. in 0.1-10 ml fractions diluted with 0.1-1000 ml activation buffer (ASW) pH 8.3. ASW composition: 50 mmol/L KCl, 5.0 mmol/L TAPS, 425 mmol/L NaCl, 27 mmol/L MgCl2, 29 mmol/L MgSO4, 10 mmol/L CaCl2, 2.4 mmol/L NaHCO3 and 1.0 mg/ml bovine serum albumin (BSA). The activation buffer contains the appropriate metal ions in a given concentration. […] Metal ions were used as Cl^− salts. Video microscopy was performed at room temperature (22° C.) using a Nikon Diaphot inverted microscope with 20× BM phase objective and 1× video adapter connected to a Dage CCD72 camera. […] The video signal was sent via a video time clock to a Panasonic VHS video recorder. Motility was recorded on multiple viewing fields for 15 sec per field until the recorded total sperm number reached 400. Video tapes were analyzed using CellTrack system. Measurements were carried out in triplicates. Sperm motility is expressed in %, where control values represent 100% (Bracho et al.: “A Method for Preparation, Storage and Activation of Large Populations of Immotile Sea Urchin Sperm”, BBRC 237, 59-62 (1997)).
Sperms originating from ejaculates (2.0-5.0 ml) of healthy donors are diluted with 2.0-1000 ml cold MSSB buffer following liquidification and homogenized without modification of motility. From this point, sample handling and motility measurement is carried out as described in example#1.
(§2) Measurements are carried out using CASA (Computer Assisted Sperm Analysis) method within 12 hours following sperm collection or ejaculation.

Assay [3] has as its system sea urchins (Lytechinus pictus) sperms. Description: Sea urchin sperm motility by video microscopy / CASA. To be noted: control = 100%. It counts as cell-based. The method, then:
Sperms originating from ripe sea urchins (Lytechinus pictus) showing genetic and functional similarity to human and animal sperms are used (R. Felix: Reproduction 129, 251-262 (2005).
as §1, §2

The subject of assay [4] is sea urchin sperm. Description: Sea urchin sperm motility time course: storage in high Ni^2+, then 100-fold dilution. It counts as cell-based, Lytechinus pictus. To be noted: time point 0 = 100%. As for the experimental part:
as §1
a) Preparations of sea urchin sperm are produced as described in example 1. Motility measurements are carried out in predetermined time points as described in example#1 starting from time point 0. The activation buffer at time point 0 is supplemented with 20 mmol/L Ni^2+ as NiCl2. After 4 hours, sperm suspensions are diluted 100-fold with activation buffer, achieving 200 μmol/L final Ni^2+ concentration. Measurements of motility are carried out further. Sperm motility is expressed in %, where control values at time point 0 represent 100%.

Turning to `[Cd+2]` [Cd^2+], the “motility (%)” value in assay [1] (3.5 μmol/L Cd^2+, control printed as 64.0) is 49.1%.

Turning to `[Co+2]` [Co^2+], the “motility (%)” value is 106.2% in assay [2] (1 μmol/L metal ion); 112.7% in assay [2] (10 μmol/L metal ion); 122.5% in assay [2] (100 μmol/L metal ion); 98.2% in assay [2] (1 mmol/L metal ion); 91.0% in assay [2] (10 mmol/L metal ion); 108.6% in assay [3] (1 μmol/L metal ion). For the same compound, the “motility (%)” value is on record as 118.2% in assay [3] (10 μmol/L metal ion), 127.5% in assay [3] (100 μmol/L metal ion), 101.1% in assay [3] (1 mmol/L metal ion) and 92.9% in assay [3] (10 mmol/L metal ion).

As to `[Ni+2]` [Ni^2+], the “motility (%)” value in assay [2] (1 μmol/L metal ion) stood at 105.7%; in assay [2] (10 μmol/L metal ion), 126.9%; in assay [2] (100 μmol/L metal ion), 129.5%; in assay [2] (1 mmol/L metal ion), 93.2%; in assay [2] (10 mmol/L metal ion), 88.9%; in assay [3] (1 μmol/L metal ion) it was 111.4%. The “motility (%)” value in assay [3] (10 μmol/L metal ion) worked out at 127.3%; in assay [3] (100 μmol/L metal ion), 132.0%; in assay [3] (1 mmol/L metal ion), 98.6%; in assay [3] (10 mmol/L metal ion), 85.2%; in assay [4] (time 0:20, 20 mmol/L Ni^2+), 99.0%; in assay [4] (time 1:00, 20 mmol/L Ni^2+) it was 85.7%. Also, the “motility (%)” value in assay [4] (time 2:00, 20 mmol/L Ni^2+) is given as 86.8%; in assay [4] (time 3:00, 20 mmol/L Ni^2+) it was 81.6%; in assay [4] (time 4:00, 20 mmol/L Ni^2+) it was 76.3%; in assay [4] (time 4:20, after 100-fold dilution at 4 hours to 200 μmol/L Ni^2+), 102.6%; in assay [4] (time 5:00, after 100-fold dilution at 4 hours to 200 μmol/L Ni^2+) it was 119.0%; in assay [4] (time 6:00, after 100-fold dilution at 4 hours to 200 μmol/L Ni^2+), 123.5%. Besides, the “motility (%)” value stood at 123.0% in assay [4] (time 7:00, after 100-fold dilution at 4 hours to 200 μmol/L Ni^2+) and 120.6% in assay [4] (time 8:00, after 100-fold dilution at 4 hours to 200 μmol/L Ni^2+).

`[Zn+2]` [Zn^2+]: the “motility (%)” value in assay [1] (16 μmol/L Zn^2+, control printed as 64.3) stood at 51.0%.
